# Measurements: ChEMBL document CHEMBL1150124, “Steroidal and pregnane glycosides from the rhizomes of Tacca chantrieri” (J Nat Prod, 2002)
# Active and inactive are the calls of the source. The calls are words filed in the database; no cut-off is given here.
# Tested on: HL-60
# Assay: Cytotoxicity against human HL60 cells at 10 ug/mL
# Format: functional, cell-based
row,SMILES,Activity
1,CO[C@]1(CC[C@H](C)CO[C@@H]2O[C@H](CO)[C@@H](O)[C@H](O)[C@H]2O)O[C@H]2C[C@H]3[C@@H]4CC=C5C[C@@H](O[C@@H]6O[C@H](CO)[C@@H](O)[C@H](O[C@@H]7O[C@@H](C)[C@H](O[C@@H]8O[C@H](CO)[C@@H](O)[C@H](O)[C@H]8O)[C@@H](O)[C@H]7O)[C@H]6O[C@@H]6O[C@@H](C)[C@H](O)[C@@H](O)[C@H]6O)CC[C@]5(C)[C@H]4CC[C@]3(C)[C@H]2[C@@H]1C,inactive
2,CC(=O)C1=CC[C@H]2[C@@H]3CC=C4C[C@@H](O[C@@H]5O[C@H](CO)[C@@H](O)[C@H](O[C@@H]6O[C@@H](C)[C@H](O[C@@H]7O[C@H](CO)[C@@H](O)[C@H](O)[C@H]7O)[C@@H](O)[C@H]6O)[C@H]5O[C@@H]5O[C@@H](C)[C@H](O)[C@@H](O)[C@H]5O)CC[C@]4(C)[C@H]3CC[C@]12C,inactive
3,CO[C@]1(CC[C@H](C)CO[C@@H]2O[C@H](CO[C@@H]3O[C@H](CO)[C@@H](O)[C@H](O)[C@H]3O)[C@@H](O)[C@H](O)[C@H]2O)O[C@H]2C[C@H]3[C@@H]4CC=C5C[C@@H](O[C@@H]6O[C@H](CO)[C@@H](O)[C@H](O[C@@H]7O[C@@H](C)[C@H](O[C@@H]8O[C@H](CO)[C@@H](O)[C@H](O)[C@H]8O)[C@@H](O)[C@H]7O)[C@H]6O[C@@H]6O[C@@H](C)[C@H](O)[C@@H](O)[C@H]6O)CC[C@]5(C)[C@H]4CC[C@]3(C)[C@H]2[C@@H]1C,inactive
4,CC(=O)OC[C@H]1O[C@@H](O[C@H]2CC[C@@]3(C)C(=CC[C@H]4[C@@H]5C[C@@H]6OC(CC[C@H](C)CO[C@@H]7O[C@H](CO)[C@@H](O)[C@H](O)[C@H]7O)=C(C)[C@@H]6[C@@]5(C)CC[C@@H]43)C2)[C@H](O[C@@H]2O[C@@H](C)[C@H](O)[C@@H](O)[C@H]2O)[C@@H](O[C@@H]2O[C@@H](C)[C@H](O[C@@H]3O[C@H](CO)[C@@H](O)[C@H](O)[C@H]3O)[C@@H](O)[C@H]2O)[C@@H]1O,inactive
5,CC(=O)[C@H]1[C@@H](OC(=O)CC[C@H](C)CO[C@@H]2O[C@H](CO)[C@@H](O)[C@H](O)[C@H]2O)C[C@H]2[C@@H]3CC=C4C[C@@H](O[C@@H]5O[C@H](CO)[C@@H](O)[C@H](O[C@@H]6O[C@@H](C)[C@H](O[C@@H]7O[C@H](CO)[C@@H](O)[C@H](O)[C@H]7O)[C@@H](O)[C@H]6O)[C@H]5O[C@@H]5O[C@@H](C)[C@H](O)[C@@H](O)[C@H]5O)CC[C@]4(C)[C@H]3CC[C@@]21C,inactive
6,CC1=C(CC[C@H](C)CO[C@@H]2O[C@H](CO)[C@@H](O)[C@H](O)[C@H]2O)O[C@H]2C[C@H]3[C@@H]4CC=C5C[C@@H](O[C@@H]6O[C@H](CO)[C@@H](O)[C@H](O[C@@H]7O[C@@H](C)[C@H](O[C@@H]8O[C@H](CO)[C@@H](O)[C@H](O)[C@H]8O)[C@@H](O)[C@H]7O)[C@H]6O[C@@H]6O[C@@H](C)[C@H](O)[C@@H](O)[C@H]6O)CC[C@]5(C)[C@H]4CC[C@]3(C)[C@@H]12,inactive
7,CO[C@]1(CC[C@H](C)CO[C@@H]2O[C@H](CO)[C@@H](O)[C@H](O)[C@H]2O)O[C@H]2C[C@H]3[C@@H]4CC=C5C[C@@H](O[C@@H]6O[C@H](COC(C)=O)[C@@H](O)[C@H](O[C@@H]7O[C@@H](C)[C@H](O[C@@H]8O[C@H](CO)[C@@H](O)[C@H](O)[C@H]8O)[C@@H](O)[C@H]7O)[C@H]6O[C@@H]6O[C@@H](C)[C@H](O)[C@@H](O)[C@H]6O)CC[C@]5(C)[C@H]4CC[C@]3(C)[C@H]2[C@@H]1C,inactive
